# Data as given in US20110207689A1, “THE TREATMENT OF HEARING LOSS” (Auckland UniServices Limited, priority 2008, published 2011).
# Test system: rats exposed to 8-12 kHz band noise for 24 hours at 110 dB SPL
# Assay: ABR threshold recovery after prolonged (24 hours) noise exposure, systemic ADAC (Experiment 1)
# Format: in vivo, Wistar rats
# Details: for recovery of ABR thresholds: 24 h noise 110 dB SPL
# Method: In Experiments 1 and 2, Wistar rats were exposed to noise (8-12 kHz, 110 dB SPL for 2-24 hours). ADAC was then administered to the Wistar rats at 100 μg/kg/day. The ADAC was either administered as a single injection 6 hours after noise exposure, or as a single injection 24 hours after noise exposure, or as multiple injections, with the first injection of the multiple injections being administered 6 hours after noise exposure.
# Hearing thresholds were assessed using auditory brainstem responses (ABRs) and the cellular damage was evaluated by quantitative histology (hair cell loss). ABR represents the activity of the auditory nerve and the central auditory pathways (brainstem/mid-brain regions) responding to the sound (clicks or pure tones). Nitrotyrosine marker was used for the immunohistochemical assessment of free radical damage.
# Adenosine amine congener (ADAC) was obtained from Dr Ken Jacobson (NIH, Bethesda, USA). ADAC ([…]) was dissolved first in 100 μL of 1N HCl and then in 50 ml of 0.1 M PBS (pH 7.4), making a 50 μg/mL stock solution. This solution was aliquoted at 1 mL in eppendorf tubes, and stored at −20° C. for later use. When required, the ADAC aliquots were heated in a 37° C. water bath for 30 minutes before administration. ADAC injection dose was […] given intraperitoneally, 200 μl/100 g body weight.
# The rats were exposed to 8-12 kHz band noise presented for 24 hours at 110 dB SPL. This was done in a custom built acoustic chamber (Shelburg Acoustics, Sydney, Australia) with internal speakers and external controls (sound generator and frequency selector). Sound intensity inside the chamber was tested using a calibrated Rion NL-40 sound level meter to ensure minimal deviations of sound intensity (110±1 dB SPL). Up to 4 rats were placed in the chamber in a standard rat cage. They were introduced to the sound chamber at 1 hour intervals so that the timing of subsequent ABRs could be kept consistent for all rats.
# ABR represents the activity of the auditory nerve and the central auditory pathways (brainstem/mid-brain regions) responding to the sound (clicks or pure tones). ABRs were obtained by placing fine platinum electrodes subdermally at the mastoid region of the ear of interest (active electrode), scalp vertex (reference) and mastoid region of the opposite ear (ground electrode). A series of auditory clicks or pure tones (4-28 kHz) presented at varying intensity and thresholds generate electrical activity reflecting differing levels of auditory processing. The sound threshold of the ABR complex (waves I-IV) were determined by progressively attenuating the sound intensity until the waveform can no longer be observed.
# The acoustic stimuli for ABR were produced and the responses recorded using a Tucker-Davis Technologies auditory physiology workstation (Alachua, Fla., USA).
# All ABR measurements were performed in a sound attenuator chamber (Shelburg Acoustics, Sydney, Australia). Rats were anaesthetised with the mixture of Ketamine (75 mg/kg) and Xylazine (10 mg/kg) intraperitoneally, and then placed onto a heating pad, to maintain body temperature at 37° C. ABR potentials were evoked with digitally produced 5 ms tone pips (0.5 ms rise-fall time) at frequencies between 4 and 28 kHz in half-octave steps. Sound pressure level (SPL) was raised in 5 dB steps starting from 10 dB below threshold level to 90 dB SPL. Responses were averaged at each sound level (1024 repeats with stimulus polarity alternated), and response waveforms were discarded when peak-to-peak amplitude exceeded 15 μV. The ABR threshold was defined as the lowest intensity (to the nearest 5 dB) at which a response could be visually detected above the noise floor.
# ABR thresholds were measured before and after noise exposure, and after ADAC/vehicle treatment. Post-noise ABR recordings were obtained 1 hour before the rats received their first ADAC or vehicle injection. […]
structure (smiles),measurement,setting,value
"NCCNC(=O)Cc1ccc(NC(=O)Cc2ccc(Nc3ncnc4c3ncn4[C@@H]3O[C@H](CO)[C@@H](O)[C@H]3O)cc2)cc1 [ADAC, adenosine amine congener]",effect on threshold recovery,"ADAC administration 24 hours after noise exposure, FIG. 3",less pronounced
same,recovery of ABR thresholds at all pure tone frequencies,"chronic treatment (5 days, five injections every 24 hours commencing 6 hours post-noise), 100 μg/kg i.p.",22-28 dB
same,highest recovery of ABR thresholds (mean ± SEM),"group that received multiple injections of ADAC (FIGS. 4 and 5), follows sentence on auditory clicks",29 dB
same,best recovery of hearing thresholds,"prolonged ADAC treatment (5 injections), FIG. 4",< 25 dB
same,lowest recovery of ABR thresholds (mean ± SEM),"single ADAC injection 24 hours after noise exposure (FIGS. 3 and 5), follows sentence on auditory clicks",8±2 dB
same,recovery of ABR thresholds,single injection ADAC 100 μg/kg i.p. 24 hours after noise exposure,5-12 dB
same,recovery of ABR thresholds,"single injection ADAC 100 μg/kg i.p., early treatment 6 hours after noise",17-26 dB
same,threshold recovery versus control group,"single injection of ADAC 6 hours after noise exposure, pure tones and auditory clicks, p<0.05, p<0.01",statistically significant difference between the groups in the level of recovery
